Laboratory results published in ChEMBL document CHEMBL1133184, “SAR of 9-amino-1,2,3,4-tetrahydroacridine-based acetylcholinesterase inhibitors: synthesis, enzyme inhibitory activity, QSAR, and structure-based CoMFA of tacrine analogues” (J Med Chem, 2000).

Experiments:
Acetylcholinesterase [1] = molecular target: T1, Acetylcholinesterase (Homo sapiens, UniProt P22303)
Description: Experimental pIC50 values for the inhibition of acetylcholinesterase

Acetylcholinesterase [2] = molecular target: T1, Acetylcholinesterase; remark: listed apart in the source
Description: Inhibitory activity against human erythrocyte acetylcholinesterase

T1 sequence (P22303 whole entry): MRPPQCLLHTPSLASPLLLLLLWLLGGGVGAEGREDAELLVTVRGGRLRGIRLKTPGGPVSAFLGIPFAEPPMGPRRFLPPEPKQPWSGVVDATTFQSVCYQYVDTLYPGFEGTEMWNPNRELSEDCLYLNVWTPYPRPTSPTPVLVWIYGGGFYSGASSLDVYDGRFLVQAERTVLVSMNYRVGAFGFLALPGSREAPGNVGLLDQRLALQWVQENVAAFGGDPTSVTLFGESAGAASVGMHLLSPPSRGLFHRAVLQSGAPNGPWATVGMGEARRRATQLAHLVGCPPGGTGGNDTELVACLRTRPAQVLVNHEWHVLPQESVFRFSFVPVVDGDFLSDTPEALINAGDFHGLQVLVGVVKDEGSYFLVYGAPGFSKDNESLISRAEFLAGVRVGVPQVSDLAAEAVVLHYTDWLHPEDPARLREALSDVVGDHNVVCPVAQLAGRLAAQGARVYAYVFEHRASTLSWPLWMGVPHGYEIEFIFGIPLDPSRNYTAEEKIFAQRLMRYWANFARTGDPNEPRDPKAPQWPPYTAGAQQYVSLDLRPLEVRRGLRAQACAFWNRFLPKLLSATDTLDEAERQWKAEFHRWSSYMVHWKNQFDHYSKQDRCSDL

In the case of `Nc1c2c(nc3cc(F)ccc13)CCCC2`, the IC50 (Acetylcholinesterase [1]) is reported as 87.1 nM and the IC50 (Acetylcholinesterase [2]) is reported as 87 nM.

`Nc1c2c(nc3cc(Br)ccc13)CCCC2` was tested, and the IC50 (Acetylcholinesterase [2]) was 66 nM.

Work on `Clc1ccc2c(NCc3ccccc3)c3c(nc2c1)CCCC3` yielded an IC50 (Acetylcholinesterase [1]) of 170 nM and an IC50 (Acetylcholinesterase [2]) of 170 nM.

`Cc1ccc2c(NCc3ccccc3)c3c(nc2c1)CCCC3` showed an IC50 (Acetylcholinesterase [1]) of 741 nM and an IC50 (Acetylcholinesterase [2]) of 750 nM.

With `Nc1c2c(nc3ccc(Cl)cc13)CCCC2` the IC50 (Acetylcholinesterase [1]) was 550 nM and the IC50 (Acetylcholinesterase [2]) was 550 nM.

With `CCCCCCCNc1c2c(nc3cc(F)ccc13)CCCC2` the IC50 (Acetylcholinesterase [1]) was 45.7 nM and the IC50 (Acetylcholinesterase [2]) was 45 nM.

In the case of `Nc1ccc2nc3c(c(N)c2c1)CCCC3`, the IC50 (Acetylcholinesterase [1]) is reported as 3800 nM and the IC50 (Acetylcholinesterase [2]) is reported as 3800 nM.

`O=[N+]([O-])c1ccc2nc3c(c(NCc4ccccc4)c2c1)CCCC3` gave an IC50 (Acetylcholinesterase [1]) of 1580 nM and an IC50 (Acetylcholinesterase [2]) of 1600 nM.

`CCCCCCCNc1c2c(nc3cc(OC)ccc13)CCCC2` was tested, and the IC50 (Acetylcholinesterase [1]) was 468 nM and the IC50 (Acetylcholinesterase [2]) was 460 nM.

`Nc1c2c(nc3ccccc13)-c1ccc(F)cc1C2` was tested, and the IC50 (Acetylcholinesterase [1]) was 437 nM.

With `Nc1c2c(nc3cc(Cl)c(Cl)cc13)CCCC2` the IC50 (Acetylcholinesterase [1]) was 479 nM and the IC50 (Acetylcholinesterase [2]) was 470 nM.

`COc1cccc2c1Cc1c-2nc2ccccc2c1N` gave an IC50 (Acetylcholinesterase [1]) of 1660 nM.

For `O=[N+]([O-])c1ccc2c(NCc3ccccc3)c3c(nc2c1)CCCC3`, the IC50 (Acetylcholinesterase [1]) was 4790 nM and the IC50 (Acetylcholinesterase [2]) was 4800 nM.

`COc1ccc2c(N)c3c(nc2c1)CCCC3` showed an IC50 (Acetylcholinesterase [1]) of 355 nM and an IC50 (Acetylcholinesterase [2]) of 350 nM.

Work on `CCCCCCCNc1c2c(nc3ccc(C)cc13)CCCC2` yielded an IC50 (Acetylcholinesterase [1]) of 389 nM and an IC50 (Acetylcholinesterase [2]) of 390 nM.

In the case of `Cc1ccc2nc3c(c(NCc4ccccc4)c2c1)CCCC3`, the IC50 (Acetylcholinesterase [1]) is reported as 3720 nM and the IC50 (Acetylcholinesterase [2]) is reported as 3700 nM.

With `COc1cc2nc3c(c(N)c2cc1OC)CCCC3` the IC50 (Acetylcholinesterase [1]) was 5130 nM and the IC50 (Acetylcholinesterase [2]) was 5200 nM.

With `CCCCCCCNc1c2c(nc3cc(C)ccc13)CCCC2` the IC50 (Acetylcholinesterase [1]) was 129 nM and the IC50 (Acetylcholinesterase [2]) was 130 nM.

With `Cc1ccc2c(N)c3c(nc2c1)CCCC3` the IC50 (Acetylcholinesterase [1]) was 100 nM and the IC50 (Acetylcholinesterase [2]) was 100 nM.

For `CCCCCCCNc1c2c(nc3cc([N+](=O)[O-])ccc13)CCCC2`, the IC50 (Acetylcholinesterase [1]) was 295 nM and the IC50 (Acetylcholinesterase [2]) was 290 nM.

`Nc1c2c(nc3ccc([N+](=O)[O-])cc13)CCCC2` gave an IC50 (Acetylcholinesterase [1]) of 3020 nM and an IC50 (Acetylcholinesterase [2]) of 3000 nM.

`Nc1c2c(nc3cc(Cl)ccc13)-c1ccccc1C2` gave an IC50 (Acetylcholinesterase [1]) of 6610 nM.

`CCCCCCCNc1c2c(nc3cc(Cl)ccc13)CCCC2` showed an IC50 (Acetylcholinesterase [1]) of 13.2 nM and an IC50 (Acetylcholinesterase [2]) of 13 nM.

Compound `Cc1ccc2nc3c(c(N)c2c1)CCCC3` has an IC50 (Acetylcholinesterase [1]) of 8130 nM and an IC50 (Acetylcholinesterase [2]) of 8100 nM.
